{"source": "patent US9333265B2", "about": "“Organic-inorganic hybrid composite of polymerized nitroxide compound and inorganic particles” (UNIVERSITY OF TSUKUBA, priority 2012, dated 2016)", "key": {"[1]": {"settings": "high-dosage administration; cited from earlier work"}, "[2]": {"experiment": "Blood uptake suppression after intraperitoneal administration (ESR signal in blood)", "format": "in vivo", "source_text": "Normally, low-molecular-weight compounds are taken up into the blood after intraperitoneal administration, and are at risk of dispersing throughout the body."}}}
{"smiles": "CC1(C)CCCC(C)(C)N1[O]", "note": "[TEMPO]", "values": [{"measurement": "side-effects", "setting": "[1]", "value": "reduced blood pressure and inhibition of the mitochondrial energy-transfer system"}, {"measurement": "presence in blood after intraperitoneal administration (ESR signal)", "setting": "[2]", "value": "present in blood for an hour or more"}]}
